Measured values reported in ChEMBL document CHEMBL5724914, “Linking interpersonal differences in gut microbiota composition and drug biotransformation activity” (2024).

Columns and labels:
[1] = human gut metagenome, 24 h, 2 µM
[2] = (§1) The drug is tested on WLS-073 corresponding to human gut metagenome with ENA study accession number: PRJEB37062 and ENA sample accession number: ERS12561749 for biotransformation under anaerobic condition. The drug concentrations were measured over 9 timepoints collected between 0 and 24 hours of incubation by liquid-chromatography-coupled mass spectrometry (LC–MS); conditions: 2 µM
[3] = as §1, with “WLS-220” for “WLS-073”, “ERS12561769” for “ERS12561749”; conditions: 2 µM
[4] = as §1, with “WLS-010” for “WLS-073”, “ERS12561743” for “ERS12561749”; conditions: 2 µM
[5] = as §1, with “WLS-052” for “WLS-073”, “ERS12561747” for “ERS12561749”; conditions: 2 µM
[6] = human gut metagenome, 24 h, 2 µM; remark: listed apart in the source
[7] = as §1, with “Z-004” for “WLS-073”, “to” for “to human gut”, “ERS12561804” for “ERS12561749”; conditions: 2 µM
[8] = as §1, with “Z-026” for “WLS-073”, “to” for “to human gut”, “ERS12561825” for “ERS12561749”; conditions: 2 µM
[9] = as §1, with “WLS-310” for “WLS-073”, “ERS12561785” for “ERS12561749”; conditions: 2 µM
[10] = as §1, with “WLS-039” for “WLS-073”, “ERS12561746” for “ERS12561749”; conditions: 2 µM
[11] = human gut metagenome, 24 h, 2 µM; remark: listed apart in the source
[12] = human gut metagenome, 24 h, 2 µM; remark: listed apart in the source
[13] = human gut metagenome, 24 h, 2 µM; remark: listed apart in the source
[14] = as §1, with “WLS-240” for “WLS-073”, “ERS12561773” for “ERS12561749”; conditions: 2 µM
[15] = human gut metagenome, 24 h, 2 µM; remark: listed apart in the source
[16] = human gut metagenome, 24 h, 2 µM; remark: listed apart in the source
[17] = human gut metagenome, 24 h, 2 µM; remark: listed apart in the source
[18] = human gut metagenome, 24 h, 2 µM; remark: listed apart in the source
[19] = as §1, with “WLS-069” for “WLS-073”, “ERS12561748” for “ERS12561749”; conditions: 2 µM
[20] = as §1, with “Z-017” for “WLS-073”, “mouse” for “human”, “ERS12561816” for “ERS12561749”; conditions: 2 µM
Also: call rule not given here.

SMILES | Bacterial Biotransformation [1] | Bacterial Biotransformation [2] | Bacterial Biotransformation [3] | Bacterial Biotransformation [4] | Bacterial Biotransformation [5] | Bacterial Biotransformation [6] | Bacterial Biotransformation [7] | Bacterial Biotransformation [8] | Bacterial Biotransformation [9] | Bacterial Biotransformation [10] | Bacterial Biotransformation [11] | Bacterial Biotransformation [12] | Bacterial Biotransformation [13] | Bacterial Biotransformation [14] | Bacterial Biotransformation [15] | Bacterial Biotransformation [16] | Bacterial Biotransformation [17] | Bacterial Biotransformation [18] | Bacterial Biotransformation [19] | Bacterial Biotransformation [20]
Fc1ccc([C@@H]2CCNC[C@H]2COc2ccc3c(c2)OCO3)cc1 [PAROXETINE] | Compound metabolized | Compound NOT metabolized | Compound metabolized | Compound metabolized | Compound NOT metabolized | Compound NOT metabolized | Compound NOT metabolized | Compound NOT metabolized | Compound metabolized | Compound metabolized | Compound NOT metabolized | Compound metabolized | Compound metabolized | Compound metabolized | Compound NOT metabolized | Compound metabolized | Compound metabolized | Compound metabolized | Compound metabolized | Compound NOT metabolized
CC(C)(C#N)c1cc(Cn2cncn2)cc(C(C)(C)C#N)c1 [ANASTROZOLE] | Compound metabolized | Compound NOT metabolized | Compound metabolized | Compound NOT metabolized | Compound NOT metabolized | Compound NOT metabolized | Compound NOT metabolized | Compound NOT metabolized | Compound metabolized | Compound NOT metabolized | Compound NOT metabolized | Compound NOT metabolized | Compound metabolized | Compound metabolized | Compound NOT metabolized | Compound metabolized | Compound metabolized | Compound metabolized | Compound metabolized | Compound NOT metabolized
CCN(CC)CCOC(=O)C(Cc1cccc2ccccc12)CC1CCCO1.O=C(O)C(=O)O (stereo not given) [NAFRONYL OXALATE] | Compound metabolized | Compound metabolized | Compound metabolized | Compound metabolized | Compound metabolized | Compound metabolized | Compound metabolized | Compound NOT metabolized | Compound metabolized | Compound metabolized | Compound NOT metabolized | Compound metabolized | Compound NOT metabolized | Compound metabolized | Compound NOT metabolized | Compound metabolized | Compound metabolized | Compound metabolized | Compound metabolized | Compound NOT metabolized
CNC(=C[N+](=O)[O-])NCCSCc1ccc(CN(C)C)o1 [RANITIDINE] | Compound metabolized | Compound NOT metabolized | Compound NOT metabolized | Compound NOT metabolized | Compound NOT metabolized | Compound NOT metabolized | Compound metabolized | Compound metabolized | Compound metabolized | Compound NOT metabolized | Compound metabolized | Compound NOT metabolized | Compound NOT metabolized | Compound NOT metabolized | Compound metabolized | Compound NOT metabolized | Compound NOT metabolized | Compound metabolized | Compound metabolized | Compound metabolized
O=C(Nc1ccccc1)OCC(CN1CCCCC1)OC(=O)Nc1ccccc1 (stereo not given) [DIPERODON] | Compound metabolized | Compound NOT metabolized | Compound metabolized | Compound metabolized | Compound NOT metabolized | Compound metabolized | Compound metabolized | Compound NOT metabolized | Compound metabolized | Compound NOT metabolized | Compound NOT metabolized | Compound metabolized | Compound NOT metabolized | Compound metabolized | Compound NOT metabolized | Compound NOT metabolized | Compound metabolized | Compound metabolized | Compound metabolized | Compound NOT metabolized
NC12CC3CC(CC(C3)C1)C2 [AMANTADINE] | Compound NOT metabolized | Compound NOT metabolized | Compound NOT metabolized | Compound NOT metabolized | Compound NOT metabolized | Compound NOT metabolized | Compound NOT metabolized | Compound NOT metabolized | Compound NOT metabolized | Compound NOT metabolized | Compound NOT metabolized | Compound NOT metabolized | Compound NOT metabolized | Compound NOT metabolized | Compound NOT metabolized | Compound NOT metabolized | Compound NOT metabolized | Compound NOT metabolized | Compound NOT metabolized | Compound NOT metabolized
COC1=CC(=O)C[C@@H](C)[C@]12Oc1c(Cl)c(OC)cc(OC)c1C2=O [GRISEOFULVIN] | Compound metabolized | Compound metabolized | Compound metabolized | Compound metabolized | Compound metabolized | Compound metabolized | Compound metabolized | Compound metabolized | Compound metabolized | Compound metabolized | Compound NOT metabolized | Compound metabolized | Compound metabolized | Compound metabolized | Compound metabolized | Compound metabolized | Compound metabolized | Compound metabolized | Compound metabolized | Compound metabolized
